From patent US9655975B2, “Prodrug using nitroimidazole” (UNIVERSITY OF TSUKUBA, priority 2012, dated 2017)

Experiments:
Assay type in all cases: cell-based
[1] = tested on: Human pancreatic cancer cells (MIA PaCa-2); assay: Evaluation of cell survival rate by WST assay, normal vs low oxygen (Example 7, Comparative Example)
Method: Human pancreatic cancer cells (MIA PaCa-2, acquired from Riken Cell Bank) were dispensed at a density of 5,000 cells/well and cultured for 24 hours in Dulbecco's modified Eagle medium (DMEM), following which Compound 7 was added to the specified concentration and 6 hours of culturing was carried out at a normal oxygen concentration (20%) or a low oxygen concentration (0.1%). After culturing, DMEM medium replacement was carried out, the compound was removed, and 48 hours of culturing was carried out in a normal oxygen concentration incubator, following which the cell survival rate was analyzed by a WST assay.
Compound 8 below, which is mentioned in WO 2009/018163 A1, was furnished for use. The cell survival rates were compared in tests conducted by the method described in Example 7 on both Compound 8 and a compound within the scope of this invention (aside from the fact that the corresponding linker was —CH2CH2C(═O)—, the manner of bonding between nitroimidazole and the drug was the same; Compound 7 of Example 6).

[2] = tested on: Human pancreatic cancer cells (MIA PaCa-2); assay: Release of drug from prednisolone prodrug in low-oxygen environment (Example 16), LC/MS; conditions: Compound 13 at a concentration of 10, one hour, 20% O2 vs 0.1% O2, LC/MS, FIG. 8
Method: Human pancreatic cancer cells (MIA PaCa-2, acquired from Riken Cell Bank) were prepared as a suspension having a cell count of 1×10^4 cells/mL), and dispensed into a 96-well plate. After 24 hours, Compound 13 was added to a concentration of 10 and the cells were cultured in a normal oxygen concentration incubator (20% O2) or at a low-oxygen work station (0.1% O2). One hour layer, the culture medium was recovered, trypsin was added, and the cells were recovered. The recovered cells were disrupted by sonic treatment and the compound was extracted with acetonitrile, following which analysis by LC/MS of the amount of prednisolone released was carried out under the following conditions.
Column used: TSKgel ODS-100Z (particle size, 3 μm; 2 mm×75 mm) column
Measurement wavelength: 250 nm
Eluent A: 0.1 M ammonium acetate
Gradient: 40:60 (Eluent A:Eluent B)→10:90 (20 minutes)
By carrying out this measurement, the amount of compound released in a low-oxygen environment was compared with the amount released in a normal oxygen environment.

cultured cells = assay: Incubation of Compound 5 in cultured cells under low oxygen (Example 4), release of naphthylmethylamine by HPLC; conditions: Compound 5 at 1 mM, 6 hours, 20% O2 vs 1% O2, HPLC, FIG. 2
Method: This example was carried out to confirm that Compound 5 is reduced in cells within a hypoxic environment, and that naphthylmethylamine is released by a subsequent intramolecular cyclization reaction.
A cell suspension prepared to a cell count of 1×10^4 cells/mL was dispensed into a 96-well plate, and the cells were cultured by 24 hours of incubation at 37° C. After 24 hours, the synthesized Compound 5 was added to the cells in an amount of 1 mM. Following addition, the cells were cultured for 6 hours each in a normal oxygen concentration incubator (20% O2) or at a low-oxygen work station (1% O2). The culture medium was then recovered, 50 μL of Trypsin/EDTA was added and 5 minutes of incubation was carried out, following which the cells were stripped away and added to the medium that was earlier recovered. Next, the recovered sample was freeze-dried overnight, 200 μL of acetonitrile was added, and 30 minutes of ultrasonic cleaning was carried out. In addition, dead cells were precipitated by centrifugal separation (3,000 rpm, 10 min), the supernatant was recovered, and the acetonitrile was removed with a centrifugal evaporator. Next, 200 μL of methanol (for LC/MS) was added to the Eppendorf tube used in centrifugation, the tube contents were passed through a filter (0.2 μm), and LC/MS measurement and high-performance liquid chromatography (HPLC) measurement were carried out. […]

[3] = tested on: Human pancreatic cancer cells (MIA PaCa-2); assay: Incubation of Compound 5 in MIA PaCa-2 cells under low oxygen (Example 5), release by LC/MS; conditions: Compound 5 at 10 μM, MIA PaCa-2, 20% O2 vs 0.1% O2, LC/MS, FIG. 3
Method: Human pancreatic cancer cells (MIA PaCa-2, acquired from Riken Cell Bank) were prepared as a suspension having a cell count of 1×10^4 cells/mL), and dispensed into a 96-well plate. After 24 hours, Compound 5 was added to a concentration of 10 μM and the cells were cultured, in a normal oxygen concentration incubator (20% O2) or at a low-oxygen work station (0.1% O2). After a given time had elapsed, the culture medium was recovered, trypsin was added and the cells were recovered. The recovered cells were disrupted by sonic treatment, the compound was extracted with acetonitrile, and analysis by LC/MS was carried out under the following conditions.
Column used: Lachrom Ultra C18 (particle size, 2 μm; 2 mm×50 mm) column
Measurement wavelength: 220 nm
Eluent A: 0.1% TFA-containing milliQ
Gradient: 95:5 (Eluent A:Eluent B)→95:5 (5 minutes)→30:70 (15 minutes)
By carrying out this measurement, the amount of compound released in a low-oxygen environment and the amount of compound released in a normal oxygen environment were compared.

`COc1cccc2c1C(=O)c1c(O)c3c(c(O)c1C2=O)CC(O)(C(=O)CO)CC3OC1CC(NC(=O)CCn2ccnc2[N+](=O)[O-])C(O)C(C)O1` (centres unmarked) [Compound 7] was tested, and the “cell survival rate at low oxygen concentration compared with normal oxygen concentration” value ([1]; 6 hours at 20% or 0.1% O2, then 48 hours normal oxygen, WST assay, FIG. 4) was “significantly lowers the survival rate of human pancreatic cancer cells at a low-oxygen concentration compared with a normal oxygen concentration” and the “cytotoxicity compared with known Compound 8” value ([1]; method of Example 7, MIA PaCa-2, FIG. 5) was “significantly higher cytotoxicity”.
In the case of `C[C@]12C=CC(=O)C=C1CC[C@@H]1[C@@H]2[C@@H](O)C[C@@]2(C)[C@H]1CC[C@]2(O)C(=O)COC(=O)CCn1ccnc1[N+](=O)[O-]` [Compound 13], the “amount of prednisolone released in low-oxygen vs normal oxygen environment” value [2] is reported as “much prednisolone is released in a low-oxygen environment”.
For `O=C(CCn1ccnc1[N+](=O)[O-])NCc1cccc2ccccc12` [Compound 5, N-Naphthylmethyl-3-(2-Nitro-1H-Imidazolyl)propionylamide], the “amount of naphthylmethylamine released in low-oxygen vs normal oxygen environment” value (cultured cells) was “much naphthylmethylamine is released in a low-oxygen environment” and the “amount of naphthylmethylamine released in low-oxygen vs normal oxygen environment” value [3] was “much naphthylmethylamine is released in a low-oxygen environment”.
